Laboratory results: patent US12590062B2, “PD-1/PD-L1 inhibitors” (Gilead Sciences, Inc., priority 2017, dated 2026)

Tests used:
PD-1/PD-L1 interaction = biological target: T1, PD-1/PD-L1 interaction (Homo sapiens, UniProt Q9NZQ7); experiment: PD-1/PD-L1 NFAT reporter co-culture assay; assay type: cell-based; conditions: Jurkat PD-1 NFAT-luciferase cells co-cultured with aAPC-PD-L1 CHO cells, 6 hrs at 37° C.; read-out: EC50 NFAT Luciferase
T1 construct: expressed in transfected cells; host or cells: CHO cells (aAPC-PD-L1) co-cultured with Jurkat cells overexpressing PD-1 and an NFAT-luciferase reporter
T1 sequence (Q9NZQ7 19-290): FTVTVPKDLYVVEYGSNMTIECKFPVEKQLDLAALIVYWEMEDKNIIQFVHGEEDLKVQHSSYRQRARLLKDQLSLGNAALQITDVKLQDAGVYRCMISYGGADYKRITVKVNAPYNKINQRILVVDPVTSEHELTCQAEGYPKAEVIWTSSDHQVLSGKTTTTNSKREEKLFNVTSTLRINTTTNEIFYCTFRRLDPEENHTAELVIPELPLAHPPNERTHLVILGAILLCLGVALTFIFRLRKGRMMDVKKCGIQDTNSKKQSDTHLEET
How it was run: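 Compounds are scored by restoration of NFAT-luciferase signal in PD-1-expressing Jurkat cells cultured 6 h at 37 °C on CHO cells presenting anti-CD3 and PD-L1; EC50 values derive from four-parameter curve fitting.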

PD-L1 = biological target: T2, PD-L1 (Homo sapiens, UniProt Q9NZQ7); experiment: PD-L1/PD-L1 dimerization biochemical protein-protein interaction assay (ALPHA); assay type: binding; conditions: compound-induced PD-L1 dimerization, head prints '1 nM' (0.5 nM His-tagged PD-L1 and 0.5 nM FLAG-tagged PD-L1), read-out: AC50 PDL1 Dimer Alpha 1 nM
T2 construct: determine if they can specifically dimerize the extracellular domains of PD-L1
T2 sequence (Q9NZQ7 19-238 limits assumed): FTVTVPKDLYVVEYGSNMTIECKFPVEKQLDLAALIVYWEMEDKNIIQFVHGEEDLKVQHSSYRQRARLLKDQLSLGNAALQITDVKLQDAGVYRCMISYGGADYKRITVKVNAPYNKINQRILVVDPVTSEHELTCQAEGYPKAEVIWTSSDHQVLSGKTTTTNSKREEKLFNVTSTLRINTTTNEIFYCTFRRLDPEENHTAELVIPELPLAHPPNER
T2 sequence (Q9NZQ7 19-238 limits assumed): as above
Description: PD-L1/PD-L1 Dimerization Biochemical Protein-Protein Interaction Assay:
Compounds were tested in biochemical protein-protein interaction assays to determine if they can specifically dimerize the extracellular domains of PD-L1. Dimerization of the proteins (His-tagged PD-L1 and FLAG-tagged PD-L1) is measured using a bead based Amplified Luminescent Proximity Homogeneous Assay (ALPHA) platform. […] Assays are performed in 25 mM Hepes (pH 7.4), 150 mM NaCl, 3.4 mM EDTA, 0.005% Tween 20, and 0.01% BSA. Final protein concentration in the assays were 0.5 nM (His tagged PD-L) and 0.5 nM (FLAG tagged PD-L1). After an assay reaction time of 2 hours at 25° C., 20 μg/mL (final assay concentration) ALPHA assay acceptor beads (anti-His coated) were added and incubated for 60 minutes at 25° C. Binding was measured following a final 60 minute incubation with 40 μg/mL (final assay concentration) ALPHA assay donor beads (anti-FLAG coated). AC50 values were calculated from the fit of the dose-response curves to a four-parameter equation (Table 3).

PD-1/PD-L1 = PD-1/PD-L1 (Homo sapiens, UniProt Q9NZQ7); experiment: PD-1/PD-L1 biochemical protein-protein interaction assay (ALPHA); assay type: binding; conditions: 0.3 nM His tagged PD-L1, 2.5 nM biotinylated Fc-PD-1, 60 minutes at 25° C., read-out: IC50 PD-L1-PD-1 Alpha IC50-mono PD-L1-fcP-D1
Sequence of PD-1/PD-L1 (Q9NZQ7 19-238 limits assumed): as above
How it was run: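 ALPHA bead proximity assay of extracellular domains: 0.3 nM His-PD-L1 with 2.5 nM biotinylated Fc-PD-1 in 25 mM Hepes pH 7.4, 150 mM NaCl, 3.4 mM EDTA, 0.005% Tween 20, 0.01% BSA, 60 min at 25 °C. Anti-His acceptor and streptavidin donor beads added; IC50 from four-parameter fit of signal loss.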

SMILES	EC50 (PD-1/PD-L1 interaction)	AC50 (PD-L1)	IC50 (PD-1/PD-L1)
Cc1c(COc2nc(OCCCC#N)c(CNC[C@@H](O)CC(=O)O)cc2Br)cccc1-c1cccc(COc2nc(OCCCC#N)c(CNC[C@@H](O)CC(=O)O)cc2Br)c1C [Example 144, (3S,3′S)-4,4′-((((((2,2′-dimethyl-[1,1′-biphenyl]-3,3′-diyl)bis(methylene))bis(oxy))bis(5-bromo-2-(3-cyanopropoxy)pyridine-6,3-diyl))bis(methylene))bis(azanediyl))bis(3-hydroxybutanoic acid)]	201 nM	206 nM	
N#Cc1cncc(COc2nc(OCc3cccc(-c4cccc(COc5nc(OCc6cncc(C#N)c6)c(CNC[C@@H](O)CC(=O)O)cc5Br)c4Cl)c3Cl)c(Br)cc2CNC[C@@H](O)CC(=O)O)c1 [Example 193, (3S,3′S)-4,4′-((((((2,2′-Dichloro-[1,1′-biphenyl]-3,3′-diyl)bis(methylene))bis(oxy))bis(5-bromo-2-((5-cyanopyridin-3-yl)methoxy)pyridine-6,3-diyl))bis(methylene))bis(azanediyl))bis(3-hydroxybutanoic acid)]	99 nM	132 nM	
Cc1c(COc2cc(OCc3cncc(C#N)c3)c(CNC[C@@H](O)CC(=O)O)cc2Cl)cccc1-c1cccc(-c2ccc3sc(CNC[C@@H](O)CC(=O)O)nc3c2)c1C [Example 399, (S)-4-(((5-(3′-((4-((((S)-3-carboxy-2-hydroxypropyl)amino)methyl)-2-chloro-5-((5-cyanopyridin-3-yl)methoxy)phenoxy)methyl)-2,2′-dimethyl-[1,1′-biphenyl]-3-yl)benzo[d]thiazol-2-yl)methyl)amino)-3-hydroxybutanoic acid]	319 nM	289 nM	
Cc1c(COc2cc(OCc3cncc(C#N)c3)c(CNC[C@@H](O)CC(=O)O)cc2Cl)cccc1-c1cccc(-c2ccc3cc(CNC[C@@H](O)CC(=O)O)ccc3n2)c1C [Example 398, (S)-4-(((2-(3′-((4-((((S)-3-carboxy-2-hydroxypropyl)amino)methyl)-2-chloro-5-((5-cyanopyridin-3-yl)methoxy)phenoxy)methyl)-2,2′-dimethyl-[1,1′-biphenyl]-3-yl)quinolin-6-yl)methyl)amino)-3-hydroxybutanoic acid]	1100 nM	728 nM	
Cc1c(COc2nc(OCc3cncc(S(C)(=O)=O)c3)c(CN[C@](C)(CO)C(=O)O)cc2Br)cccc1-c1cccc(COc2nc(OCc3cncc(S(C)(=O)=O)c3)c(CN[C@](C)(CO)C(=O)O)cc2Br)c1C [Example 40, (2R,2′R)-2,2′-((((((2,2′-dimethyl-[1,1′-biphenyl]-3,3′-diyl)bis(methylene))bis(oxy))bis(5-bromo-2-((5-(methylsulfonyl)pyridin-3-yl)methoxy)pyridine-6,3-diyl))bis(methylene))bis(azanediyl))bis(3-hydroxy-2-methylpropanoic acid)]	176 nM		0.1 nM
Cc1c(COc2cc(OCc3cncc(C#N)c3)c(CNC[C@@H](O)CC(=O)O)cc2Cl)cccc1-c1cccc(-c2ccc(N3CCNCC3)cc2)c1C [Example 339, (S)-4-((5-chloro-2-((5-cyanopyridin-3-yl)methoxy)-4-((2,2′-dimethyl-4″-(piperazin-1-yl)-[1,1′:3′,1″-terphenyl]-3-yl)methoxy)benzyl)amino)-3-hydroxybutanoic acid]	2220 nM		1.3 nM
CNC(=O)COc1nc(O[C@H]2CCc3c(-c4cccc(-c5ccc(OCCNC[C@@H](O)CC(=O)O)cc5)c4C)cccc32)ccc1CNC[C@@H](O)CC(=O)O [Example 756]	6590 nM		1.16 nM
Cc1c(COc2ccc(CNC[C@@H](O)CC(=O)O)cc2C#N)cccc1-c1cccc(COc2ccc(CNC[C@@H](O)CC(=O)O)cc2C#N)c1C [Example 177, (3S,3′S)-4,4′-((((((2,2′-dimethyl-[1,1′-biphenyl]-3,3′-diyl)bis(methylene))bis(oxy))bis(3-cyano-4,1-phenylene))bis(methylene))bis(azanediyl))bis(3-hydroxybutanoic acid)]	20600 nM		0.1 nM
COc1nc(OCc2cccc(-c3cccc(COc4ccc(CNC[C@@H](O)CC(=O)O)c(OC)n4)c3Cl)c2Cl)ccc1CNC[C@@H](O)CC(=O)O [Example 187, (3S,3′S)-4,4′-((((((2,2′-Dichloro-[1,1′-biphenyl]-3,3′-diyl)bis(methylene))bis(oxy))bis(2-methoxypyridine-6,3-diyl))bis(methylene))bis(azanediyl))bis(3-hydroxybutanoic acid)]	3200 nM		0.6 nM
CC(=O)NCCNCc1cc(Cl)c(OCc2cccc(-c3cccc(COc4cc(OCc5cncc(C#N)c5)c(CNCCNC(C)=O)cc4Cl)c3C)c2C)cc1OCc1cncc(C#N)c1 [Example 70, N,N′-(((((((2,2′-dimethyl-[1,1′-biphenyl]-3,3′-diyl)bis(methylene))bis(oxy))bis(5-chloro-2-((5-cyanopyridin-3-yl)methoxy)-4,1-phenylene))bis(methylene))bis(azanediyl))bis(ethane-2,1-diyl))diacetamide]	902 nM		10.6 nM
Cc1c(COc2cc(OCc3cncc(C#N)c3)c(CNC[C@@H](O)CC(=O)O)cc2Cl)cccc1-c1cncc(COc2cc(OCc3cncc(C#N)c3)c(CNC[C@@H](O)CC(=O)O)cc2Cl)c1 [Example 208, (S)-4-((4-((5-(3-((4-((((S)-3-Carboxy-2-hydroxypropyl)amino)methyl)-2-chloro-5-((5-cyanopyridin-3-yl)methoxy)phenoxy)methyl)-2-methylphenyl)pyridin-3-yl)methoxy)-5-chloro-2-((5-cyanopyridin-3-yl)methoxy)benzyl)amino)-3-hydroxybutanoic acid]	10600 nM		1.4 nM
Cc1c(COc2ccc(CNC[C@@H](O)CC(=O)O)cc2C(F)(F)F)cccc1-c1cccc(COc2ccc(CNC[C@@H](O)CC(=O)O)cc2C(F)(F)F)c1C [Example 224, (3S,3′S)-4,4′-((((((2,2′-dimethyl-[1,1′-biphenyl]-3,3′-diyl)bis(methylene))bis(oxy))bis(3-(trifluoromethyl)-4,1-phenylene))bis(methylene))bis(azanediyl))bis(3-hydroxybutanoic acid)]	24900 nM		1.8 nM
Cc1c(COc2cc(OCc3cc(C#N)cc(C#N)c3)c(CNC[C@@H](O)CC(=O)O)cc2Cl)cccc1-c1cccc(COc2cc(OCc3cc(C#N)cc(C#N)c3)c(CNC[C@@H](O)CC(=O)O)cc2Cl)c1C [Example 220, (3S,3′S)-4,4′-((((((2,2′-dimethyl-[1,1′-biphenyl]-3,3′-diyl)bis(methylene))bis(oxy))bis(5-chloro-2-((3,5-dicyanobenzyl)oxy)-4,1-phenylene))bis(methylene))bis(azanediyl))bis(3-hydroxybutanoic acid)]	177 nM		2 nM
CC(=O)NCCNCc1ccc(OCc2cccc(-c3cccc(COc4ccc(CNCCNC(C)=O)c(-c5cncc(C#N)c5)c4)c3C)c2C)cc1-c1cncc(C#N)c1 [Example 250, N,N′-(((((((2,2′-dimethyl-[1,1′-biphenyl]-3,3′-diyl)bis(methylene))bis(oxy))bis(2-(5-cyanopyridin-3-yl)-4,1-phenylene))bis(methylene))bis(azanediyl))bis(ethane-2,1-diyl))diacetamide]	7490 nM		63.6 nM
Cc1c(COc2ccc(CNC[C@@H](O)CC(=O)O)cc2)cccc1-c1cccc(COc2cc(OCc3cncc(C#N)c3)c(CNC[C@@H](O)CC(=O)O)cc2Cl)c1C [Example 17, (S)-4-((4-((3′-((4-((((S)-3-carboxy-2-hydroxypropyl)amino)methyl)-2-chloro-5-((5-cyanopyridin-3-yl)methoxy)phenoxy)methyl)-2,2′-dimethyl-[1,1′-biphenyl]-3-yl)methoxy)benzyl)amino)-3-hydroxybutanoic acid]	1610 nM		0.3 nM
COc1nc(OCc2cccc(-c3cccc(COc4nc(OC)c(CNC[C@@H](O)CC(=O)O)cc4S(C)(=O)=O)c3C)c2C)c(S(C)(=O)=O)cc1CNC[C@@H](O)CC(=O)O [Example 263, (3S,3′S)-4,4′-((((((2,2′-dimethyl-[1,1′-biphenyl]-3,3′-diyl)bis(methylene))bis(oxy))bis(2-methoxy-5-(methylsulfonyl)pyridine-6,3-diyl))bis(methylene))bis(azanediyl))bis(3-hydroxybutanoic acid)]	36400 nM		1.8 nM
